According to patent US20060280894A1, “Metal complexes as light-absorbing compounds in the information layer of optical data carriers” (priority 2003, published 2006):
Read-outs that look alike come from different tables or passages of the source. Marks after values point to notes of the source that are not given here.

Assay: Absorption spectrum measured in solution
[1] = molar extinction coefficient at λmax, solvent as given for λmax

With `CCN(CC)c1ccc(N=Nc2nc(-c3ccccc3)ns2)c([N-]S(=O)(=O)N(C)C)c1.CCN(CC)c1ccc(N=Nc2nc(-c3ccccc3)ns2)c([N-]S(=O)(=O)N(C)C)c1.[Co+2]` [Example 12] as the molecule, how does the ε read?
Its ε is 92750 L/mol/cm.

What about the λ1/2-λ1/10 of the same molecule?
The λ1/2-λ1/10 was 32 nm.

What about the λmax of the same molecule?
Its λmax is 551 nm.

For `CCN(CC)c1ccc(N=Nc2nc(C#N)c(C#N)n2C)c([N-]P(=O)(OCC(F)(F)C(F)F)OCC(F)(F)C(F)F)c1.CCN(CC)c1ccc(N=Nc2nc(C#N)c(C#N)n2C)c([N-]P(=O)(OCC(F)(F)C(F)F)OCC(F)(F)C(F)F)c1.[Co+2]` [Example 3], which ε is on record?
The ε was 92203 L/mol/cm.

And the λ1/2-λ1/10?
The λ1/2-λ1/10 was 33 nm.

What about the λmax of the same molecule?
The λmax was 538^5) nm.

What does the source list for `CCN(CC)c1ccc(N=Nc2nc(C#N)c(C#N)n2C)c([N-]S(=O)(=O)N(C)C)c1.CCN(CC)c1ccc(N=Nc2nc(C#N)c(C#N)n2C)c([N-]S(=O)(=O)N(C)C)c1.[Co+2]` [Example 16]?
ε: 94990 L/mol/cm; λ1/2-λ1/10: 33 nm; λmax: 543 nm

For `CCN(CC)c1cc([N]([Ni][N](c2cc(N(CC)CC)c(C)cc2N=Nc2nc(-c3ccccc3)ns2)S(=O)(=O)N(C)C)S(=O)(=O)N(C)C)c(N=Nc2nc(-c3ccccc3)ns2)cc1C` [Example 36], which λmax is on record?
Its λmax is 552^5) nm.

What does the source list for `CCN(CC)c1ccc(N=Nc2nc(C#N)c(C#N)[nH]2)c([N-]S(=O)(=O)N(C)C)c1.CCN(CC)c1ccc(N=Nc2nc(C#N)c(C#N)[nH]2)c([N-]S(=O)(=O)N(C)C)c1.[Ni+2]` [Example 18]?
λmax (in methanol): 518^4) nm; ε [1]: 92143 L/mol/cm; λ1/2-λ1/10 (on the long wavelength flank): 21 nm

What does the source list for `CCN(CC)c1ccc(N=Nc2nc(C#N)c(C#N)[nH]2)c([N-]P(=O)(OCC(F)(F)C(F)F)OCC(F)(F)C(F)F)c1.CCN(CC)c1ccc(N=Nc2nc(C#N)c(C#N)[nH]2)c([N-]P(=O)(OCC(F)(F)C(F)F)OCC(F)(F)C(F)F)c1.[Ni+2]` [Example 5]?
ε: 70893 L/mol/cm; λ1/2-λ1/10: 21 nm; λmax: 510^4) nm

With `CCN(CC)c1ccc(N=Nc2nc(C#N)c(C#N)n2C)c([N-]S(=O)(=O)N(C)C)c1.CCN(CC)c1ccc(N=Nc2nc(C#N)c(C#N)n2C)c([N-]S(=O)(=O)N(C)C)c1.[Ni+2]` [Example 15] as the molecule, how does the ε read?
The ε was 107238 L/mol/cm.

And the λ1/2-λ1/10?
Its λ1/2-λ1/10 is 21 nm.

And the λmax?
The λmax was 540 nm.

What does the source list for `CCN(CC)c1ccc(N=Nc2nc(-c3ccccc3)ns2)c([N-]S(=O)(=O)N(C)C)c1.CCN(CC)c1ccc(N=Nc2nc(-c3ccccc3)ns2)c([N-]S(=O)(=O)N(C)C)c1.[Ni+2]` [Example 11]?
ε: 86514 L/mol/cm; λmax: 530 nm

With `CCN(CC)c1ccc(N=Nc2nc(C#N)c(C#N)n2C)c([N-]S(=O)(=O)N(C)C)c1.CCN(CC)c1ccc(N=Nc2nc(C#N)c(C#N)n2C)c([N-]S(=O)(=O)N(C)C)c1.[Zn+2]` [Example 17] as the molecule, how does the ε read?
Its ε is 111931 L/mol/cm.

And the λ1/2-λ1/10?
Its λ1/2-λ1/10 is 12 nm.

With `CCN(CC)c1ccc(N=Nc2nnc(C)s2)c([N]([Co][N](c2cc(N(CC)CC)ccc2N=Nc2nnc(C)s2)S(=O)(=O)N(C)C)S(=O)(=O)N(C)C)c1` [Example 30] as the molecule, how does the λmax (in methylene chloride) read?
The λmax was 554 nm.

What does the source list for `CCN(CC)c1ccc(N=Nc2nc(C#N)c(C#N)n2C)c([N-]P(=O)(OCC(F)(F)C(F)F)OCC(F)(F)C(F)F)c1.CCN(CC)c1ccc(N=Nc2nc(C#N)c(C#N)n2C)c([N-]P(=O)(OCC(F)(F)C(F)F)OCC(F)(F)C(F)F)c1.[Cu+2]` [Example 4]?
ε: 88071 L/mol/cm; λ1/2-λ1/10: 29 nm; λmax: 533^5) nm

Which λmax does the source give for `CCN(CC)c1cc([N]([Co][N](c2cc(N(CC)CC)c(C)cc2N=Nc2nc(-c3ccccc3)ns2)S(=O)(=O)N(C)C)S(=O)(=O)N(C)C)c(N=Nc2nc(-c3ccccc3)ns2)cc1C` [Example 38] here?
The λmax was 554^5) nm.

Which λmax does the source give for `CCN(CC)c1cc([N]([Ni][N](c2cc(N(CC)CC)c(OC)cc2N=Nc2nc(-c3ccccc3)ns2)S(=O)(=O)N(C)C)S(=O)(=O)N(C)C)c(N=Nc2nc(-c3ccccc3)ns2)cc1OC` [Example 35] here?
Its λmax is 544 nm.

What does the source list for `CCN(CC)c1ccc(N=Nc2nc(-c3ccccc3)ns2)c([N]([Ni][N](c2cc(N(CC)CC)ccc2N=Nc2nc(-c3ccccc3)ns2)P(=O)(OC)c2ccccc2)P(=O)(OC)c2ccccc2)c1` (centres unmarked) [Example 23]?
ε: 90126 L/mol/cm; λ1/2-λ1/10: 61 nm; λmax: 538^5) nm

Which ε [1] does the source give for `CCCNS(=O)(=O)[N-]c1cc(N(CC)CC)ccc1N=Nc1nc(C#N)c(C#N)[nH]1.CCCNS(=O)(=O)[N-]c1cc(N(CC)CC)ccc1N=Nc1nc(C#N)c(C#N)[nH]1.[Ni+2]` [Example 6] here?
The ε was 34523 L/mol/cm.

What about the λ1/2-λ1/10 (on the long wavelength flank) of the same molecule?
The λ1/2-λ1/10 was 21 nm.

Which λmax (in methylene chloride) does the source give for `CCN(CC)c1ccc(N=Nc2nc(-c3ccccc3)ns2)c([N]([Ni][N](c2cc(N(CC)CC)ccc2N=Nc2nc(-c3ccccc3)ns2)S(=O)(=O)NCC(F)(F)C(F)F)S(=O)(=O)NCC(F)(F)C(F)F)c1` [Example 31] here?
Its λmax is 556 nm.

Which λmax (in methylene chloride) does the source give for `CCN(CC)c1ccc(N=Nc2nnc(C)s2)c([N]([Ni][N](c2cc(N(CC)CC)ccc2N=Nc2nnc(C)s2)S(=O)(=O)N(C)C)S(=O)(=O)N(C)C)c1` [Example 29] here?
Its λmax is 554 nm.

And the ε [1]?
Its ε is 84070 L/mol/cm.

What about the λ1/2-λ1/10 (on the long wavelength flank) of the same molecule?
Its λ1/2-λ1/10 is 26 nm.
